Laboratory results published in patent publication US20060246124A1, “Methods of treating cancer with lipid-based platinum compound formulations administered intraperitoneally” (priority 2004, published 2006).

Key:
[1] = tested on: mice; assay: Maximum tolerated dose (MTD), single bolus ip injection; format: in vivo
[2] = tested on: L1210 cells; assay: Survival of mice with implanted L1210 tumor cells: cyclic temperature vs non cyclic temperature cisplatin liposomes; format: in vivo; conditions: single bolus ip 6 mg/kg on day 5, L1210, DBA/2 mice
Procedure: DPPC (3.0 g) and cholesterol (1.2 g) were co-dissolved in 20 mL of ethanol. • 2.
Female DBA/2 mice (Charles Rivers) were used. Thirty (30) mice were injected with 2×10^6 L1210 cells ip on Day 0. On day 1, the mice were weighed and randomized into 3 groups of 10 mice. […] Survival was monitored. Mice were weighed daily after day 10. Mice that lost 20% or greater of their starting weight were euthanized by CO2 inhalation. The date of their death was recorded on data sheets. Median survival was calculated by Prism GraphPad.

[3] = tested on: L1210 tumor cells; assay: In vivo antitumor activity in Murine L1210 tumor model (ascitic L1210 leukemia), ip administration; conditions: L1210, B6D2F1 mice
Procedure: The test articles and materials are presented below in Table 5.
Day 0, inoculate 6 groups of 5 male mice and 1 group of 9 male control animals with one million viable L1210 cells per mouse by ip injection. • 2. […] Each dose level represents one group of five mice. […] Control group contains 9 untreated mice.
3. Mice were monitored daily for deaths and or signs of clinical illness. The date of euthanasia was recorded for the purpose of experimental end-points. A total of 39 mice divided into 7 groups were studied. At the end point survival was assessed and expressed as % T/C (percent median survival of treated group: median survival of control group.)

[4] = tested on: stage III ovarian cancer; conditions: ip, patients with stage III ovarian cancer and residual tumor masses of 2 cm or less; cited from earlier work
[5] = Pharmacokinetics and organ distribution (Part II), platinum by ICP-MS; format: in vivo, mice; conditions: ip
Procedure: Sixty ICR mice (female, 7 weeks old) were divided into 4 groups. […] At each designed time point, three to four mice were anaesthetized with 70 mg/kg of Nembutal ip (e.g., 3, 20, and 40 min, and 2, 8, 24, 48, and 72 h). […] Organs including duodenum, kidney, liver, lung, and spleen were resected from the mice. The blood and organ samples were homogenized in distilled water (4-fold of the sample weight) and digested with nitric acid. The platinum concentration in each sample was measured by Inductively Coupled Plasma-Mass Spectrometer (ICP-MS). The pharmacokinetics profiles (FIGS. 3-7, all Y-axes are concentration of μg platinum in one gram of tissue or fluid per mg of injected dose) and parameters (Tables 3 and 4) of each formulation were simulated and calculated.

[6] = ip dose 3 mg/kg (1 mg/kg on days 3, 7, 11)
[7] = ip dose 4.5 mg/kg ([…] on days 3, 7, 11)

Compound: N.N.[Cl][Pt][Cl] [Cisplatin, cis-diamine-dichloroplatinum (II)]
- MTD [1]: 9 mg/kg
- Median survival [2]: 19.5 days
- % T/C [3, 6]: 196%
- Median survival [3, 6]: 26.5 days
- % T/C [3, 7]: 218%
- Median survival [3, 7]: 29.5 days
- survival compared with iv cisplatin [4]: significantly improves survival
- Circulation AUC ([5]; blood, normalised to injected dose): 7.08 µg·h/g/µg
- Organ AUC, Duodenum ([5]; duodenum): 8.32 µg·h/g/µg
- Organ AUC, Heart ([5]; heart): 2.67 µg·h/g/µg
- Organ AUC, Kidney ([5]; kidney): 8.61 µg·h/g/µg
- Organ Cmax, Kidney ([5]; kidney): 0.46 µg/g/µg
- Organ AUC, Liver ([5]; liver): 28.99 µg·h/g/µg
- Organ Cmax, Liver ([5]; liver): 0.71 µg/g/µg
- Organ AUC, Lung ([5]; lung): 29.00 µg·h/g/µg
- Organ Cmax, Lung ([5]; lung): 1.61 µg/g/µg
- Organ AUC, Spleen ([5]; spleen): 10.45 µg·h/g/µg
